The record followed here is US5698522A, “6-position modified decapeptide LHRH antagonists” (Abbott Laboratories, priority 1995, dated 1997).

Where a SMILES comes first, the peptide text is derived from it. Side-chain parts run from the residue outwards. [ ]: non-standard residue; d: D form. The star is where a group is joined. Shikimoyl = O=C(C1=C[C@@H](O)[C@@H](O)[C@H](O)C1)*; dPhe(4-Cl) = N[C@H](Cc1ccc(Cl)cc1)C(=O)O; d2Nal = N[C@H](Cc1ccc2ccccc2c1)C(=O)O; Lys(iPr) = CC(C)NCCCC[C@H](N)C(=O)O; NMeY = CN[C@@H](Cc1ccc(O)cc1)C(=O)O; d3Pal = N[C@H](Cc1cccnc1)C(=O)O; Nicotinoyl = O=C(c1cccnc1)*; Picolinoyl = O=C(c1ccccn1)*; X1 = O=C(c1cc2ccccc2cc1O)*; Ahx = NCCCCCC(=O)O; azaGly = NNC(=O)O

This assay concerns the target T1, LHRH receptor (Rattus norvegicus, UniProt P30969).
T1 construct: endogenous in cells
T1 sequence (P30969 1-327): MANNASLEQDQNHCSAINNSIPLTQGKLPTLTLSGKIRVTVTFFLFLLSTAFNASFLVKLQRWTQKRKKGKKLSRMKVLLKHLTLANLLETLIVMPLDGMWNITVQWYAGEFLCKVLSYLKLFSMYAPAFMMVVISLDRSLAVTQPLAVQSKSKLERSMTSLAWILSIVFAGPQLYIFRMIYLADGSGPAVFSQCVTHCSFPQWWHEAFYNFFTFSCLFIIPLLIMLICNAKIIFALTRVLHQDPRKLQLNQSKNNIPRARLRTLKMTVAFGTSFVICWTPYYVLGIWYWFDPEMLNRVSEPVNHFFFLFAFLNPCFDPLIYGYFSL
As to the kind of experiment: in vitro LHRH antagonist potency (pA2) against the agonist leuprolide. The assay is classed as cell-based. The following applies: negative logarithm of the antagonist concentration which shifts the response curve produced by the agonist leuprolide to two-fold higher concentration. The gist of the method: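 Functional antagonism against the agonist leuprolide. pA2 is the negative log of antagonist concentration that shifts the leuprolide response curve to twofold higher concentration.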
As for `CC(=O)N[C@H](Cc1ccc2ccccc2c1)C(=O)N[C@H](Cc1ccc(Cl)cc1)C(=O)N[C@H](Cc1cccnc1)C(=O)N[C@@H](CO)C(=O)N(C)[C@@H](Cc1ccc(O)cc1)C(=O)N[C@H](CCCCNC(=O)CNC(=O)c1cccnc1)C(=O)N[C@@H](CC(C)C)C(=O)N[C@@H](CCCCNC(C)C)C(=O)N1CCC[C@H]1C(=O)N[C@H](C)C(N)=O` [Example 1, NAc-D2Nal^1 -D4ClPhe^2 -D3Pal^3 -Ser^4 -NMeTyr^5 -DLys(N-epsilon-Gly-Nicotinyl)^6 -Leu^7 -Lys(N-epsilon-Isopropyl)^8 -Pro^9 -DAla^10 NH2] (Ac-[d2Nal][dPhe(4-Cl)][d3Pal]S[NMeY][dK]([Gly-Nicotinoyl])L[Lys(iPr)]P[dA]-NH2), the Kb is 0.00355 nM.
Consider `CC(=O)N[C@H](Cc1ccc2ccccc2c1)C(=O)N[C@H](Cc1ccc(Cl)cc1)C(=O)N[C@H](Cc1cccnc1)C(=O)N[C@@H](CO)C(=O)N(C)[C@@H](Cc1ccc(O)cc1)C(=O)N[C@H](CCCCNC(=O)NNC(=O)c1cc2ccccc2cc1O)C(=O)N[C@@H](CC(C)C)C(=O)N[C@@H](CCCCNC(C)C)C(=O)N1CCC[C@H]1C(=O)N[C@H](C)C(N)=O` [Example 5d, NAc-D2Nal^1 -D4ClPhe^2 -D3Pal^3 -Ser^4 -NMeTyr^5 -DLys[N-epsilon-Azagly-(3-OH-2-Naphthoyl)]^6 -Leu^7 -Lys(N-epsilon-Isopropyl)^8 -Pro^9 -DAla^10 NH2] (Ac-[d2Nal][dPhe(4-Cl)][d3Pal]S[NMeY][dK]([azaGly-X1])L[Lys(iPr)]P[dA]-NH2), for which the Kb was 0.055 nM.
The same measure for `CC(=O)N[C@H](Cc1ccc2ccccc2c1)C(=O)N[C@H](Cc1ccc(Cl)cc1)C(=O)N[C@H](Cc1cccnc1)C(=O)N[C@@H](CO)C(=O)N(C)[C@@H](Cc1ccc(O)cc1)C(=O)N[C@H](CCCCNC(=O)[C@@H](Cc1cccnc1)NC(=O)C1=C[C@@H](O)[C@@H](O)[C@H](O)C1)C(=O)N[C@@H](CC(C)C)C(=O)N[C@@H](CCCNC(=N)N)C(=O)N1CCC[C@H]1C(=O)N[C@H](C)C(N)=O` [Example 48i, NAc-D2Nal^1 -D4ClPhe^2 -D3Pal^3 -Ser^4 -NMeTyr^5 -DLys(N-epsilon-D-3Pal-Shikimyl)^6 -Leu^7 -Arg^8 -Pro^9 -DAla^10 NH2] (Ac-[d2Nal][dPhe(4-Cl)][d3Pal]S[NMeY][dK]([d3Pal-Shikimoyl])LRP[dA]-NH2): 0.0363 nM.
In the case of `CC(=O)N[C@H](Cc1ccc2ccccc2c1)C(=O)N[C@H](Cc1ccc(Cl)cc1)C(=O)N[C@H](Cc1cccnc1)C(=O)N[C@@H](CO)C(=O)N(C)[C@@H](Cc1ccc(O)cc1)C(=O)N[C@H](CCCCNC(=O)CNC(=O)c1ccccn1)C(=O)N[C@@H](CC(C)C)C(=O)N[C@@H](CCCNC(=N)N)C(=O)N1CCC[C@H]1C(=O)N[C@H](C)C(N)=O` [Example 48a, NAc-D2Nal^1 -D4ClPhe^2 -D3Pal^3 -Ser^4 -NMeTyr^5 -DLys(N-epsilon-Gly-Picolinyl)^6 -Leu^7 -Arg^8 -Pro^9 -DAla^10 NH2] (Ac-[d2Nal][dPhe(4-Cl)][d3Pal]S[NMeY][dK]([Gly-Picolinoyl])LRP[dA]-NH2), the Kb was 0.00794 nM.
Consider `CC(=O)N[C@H](Cc1ccc2ccccc2c1)C(=O)N[C@H](Cc1ccc(Cl)cc1)C(=O)N[C@H](Cc1cccnc1)C(=O)N[C@@H](CO)C(=O)N(C)[C@@H](Cc1ccc(O)cc1)C(=O)N[C@H](CCCCNC(=O)CCCCCNC(=O)c1cccnc1)C(=O)N[C@@H](CC(C)C)C(=O)N[C@@H](CCCCNC(C)C)C(=O)N1CCC[C@H]1C(=O)N[C@H](C)C(N)=O` [Example 4e, NAc-D2Nal^1 -D4ClPhe^2 -D3Pal^3 -Ser^4 -NMeTyr^5 -DLys[N-epsilon-(N-epsilon-aminocaproyl)-Nicotinyl]^6 -Leu^7 -Lys(N-epsilon-Isopropyl)^8 -Pro^9 -DAla^10 NH2] (Ac-[d2Nal][dPhe(4-Cl)][d3Pal]S[NMeY][dK]([Ahx-Nicotinoyl])L[Lys(iPr)]P[dA]-NH2), for which the Kb is 0.0339 nM.

In general, Kb refers to the equilibrium dissociation constant of an antagonist, usually derived from a functional assay.
